Experimental data: US10906894B2, “Compounds containing benzo[d][1,3]oxathiole, benzo[d][1,3]oxathiole 3-oxide or benzo[d][1,3]oxathiole 3,3-dioxide and methods/uses thereof as agonists of g protein-coupled receptor 119” (PRAMANA PHARMACEUTICALS INC., priority 2016, dated 2021)

Experiments:
[1] = target: T1, GPR119 (Homo sapiens, UniProt Q8TDV5); assay: LANCE Ultra cAMP assay: stimulation of GPR119-mediated cAMP production in CHO cells stably expressing human GPR119 receptor; type: cell-based; conditions: for Emax: CHO
T1 sequence (Q8TDV5 1-335): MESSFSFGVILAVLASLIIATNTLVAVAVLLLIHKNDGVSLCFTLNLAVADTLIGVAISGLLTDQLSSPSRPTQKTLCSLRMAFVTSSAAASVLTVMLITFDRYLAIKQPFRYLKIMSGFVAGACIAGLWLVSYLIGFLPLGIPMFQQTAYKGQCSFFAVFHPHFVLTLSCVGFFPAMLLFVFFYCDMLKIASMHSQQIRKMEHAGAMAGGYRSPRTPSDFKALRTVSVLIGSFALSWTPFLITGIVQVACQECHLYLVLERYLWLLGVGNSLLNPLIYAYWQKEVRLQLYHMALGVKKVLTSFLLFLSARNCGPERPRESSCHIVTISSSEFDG
Experimental: The potency of GPR119 receptor agonists was assessed by measuring the stimulation of GPR119-mediated cAMP production with LANCE Ultra cAMP assay (Perkin Elmer, TRF0264) in CHO cells stably expressing human GPR119 receptor (Chantest, cat. #A633). CHO-GPR119 cells were cultured in DMEM/F12 medium supplemented with 10% FBS and 1% NEAA at 37° C., 5% CO2, aliquoted and frozen in liquid nitrogen.
(§1) For assay, cells were thawed in a water bath at 37° C., washed in Hank's Balanced Salt Solution (HBSS) and resuspended in Stimulation Buffer 1 (SB1) for 30 min: 5 mM HEPES, pH 7.2-7.4, 0.1% BSA in HBSS. […] The ULight-anti-cAMP antibody (Perkin Elmer, TRF0264) was added to the cell suspension making Mix [Cell suspension/4× ULight-anti-cAMP antibodies]. […] The assay plate was centrifuged 200 g, 5 sec.
Serial dilution (100×) of tested compounds were prepared in DMSO in the range of from 30 nM to 1 mM with half-log step in 384-well plates (Greiner, 781280) using Biomek 2000. 10 test concentrations in two repeats were prepared for each CRC. […] The assay plate was incubated 30 minutes at room temperature on a shaker, 250 rpm to allow GPR119 receptor stimulation. The cAMP level was determined according to the standard kit supplier protocol (PerkinElmer, cat. #TRF0264).
(§2) The stock solution of the Eu-cAMP tracer (Perkin Elmer, TRF0264) was diluted 1:100 in cAMP Detection Buffer (Perkin Elmer, TRF0264), making 2× working concentration and added to the assay plate, 10 μL per well. Assay plate was centrifuged 180 g, 1 sec. Then the assay plate was incubated for 60′ at room temperature on shaker, 250 rpm to allow cAMP detection. The TR-FRET signal was measured at Ex-340 nm/Em-615 and Ex-340 nm/Em-665 nm on the reader Tecan M1000. 0% of cAMP stimulation corresponds to the cells with DMSO only, 100% of cAMP stimulation corresponds to the cells with 10 uM Forskolin. The EC50 value defined as the concentration of the drug that gives half-maximal response, were calculated using GraphPad Prizm 5.0 software with forskolin was used as references at each test. Entries 1-17 in Table A-2 show the biological activity of certain representative compounds using the protocol as described above.
as §1, with “cell suspension,” for “cell suspension”
as §2, with “1-14” for “1-17”, “B-2” for “A-2”

[2] = target: T1, GPR119; assay: PathHunter β-arrestin assay (enzyme fragment complementation, β-galactosidase reporter) monitoring activation of GPR119; type: cell-based; parameters: β-galactosidase enzyme fragment for EFC (by own knowledge the ProLink tag, fused to the receptor's C-terminus in PathHunter lines); conditions: for EC50: Table B-3; for Emax: Table B-3, read-out: % cAMP Max.
Experimental: Certain test compounds were evaluated using the PathHunterR β-arrestin assay, which monitors the activation of GPR119 in a homogenous, non-imaging assay format using the enzyme fragment complementation (EFC) technology (DiscoverX Corporation, Fremont, Calif. U.S.A.; www.discoverx.com) with β-galactosidase as the functional reporter.

[3] = Table B-2 entries 15-39, modified protocol, 500 cells/well, read-out: % cAMP Max.
[4] = Table B-2 entries 15-39, modified protocol, 500 cells/well
[5] = Table A-2 entries 1-17, protocol as described, 100% = 10 uM Forskolin, read-out: % cAMP Max. relative to forscolin
[6] = Table A-2 entries 1-17, protocol as described (800 000 cells/mL, 5 uL/well), CHO-GPR119 cells

Emax [1, 3] [%]	EC50 [1, 4] [nM]	EC50 [2] [nM]	Emax [2] [%]	EC50 ([1]; Table B-2 entries 1-14, protocol as described (800 000 cells/mL, 5 uL/well), CHO-GPR119 cells) [nM]	Emax [1, 5] [%]	EC50 [1, 6] [nM]	SMILES
88	17.7	60	190				CCc1cnc(N2CC[C@H](COc3ccc(-c4ccc5c(c4)OC[S@@+]5[O-])cc3F)C2)nc1 [Example B-75, (S)-6-(4-(((S)-1-(5-Ethylpyrimidin-2-yl)pyrrolidin-3-yl)methoxy)-3-fluorophenyl)-2H-benzo[d][1,3]oxathiole 3-oxide]
93	4.6	108	133				[O-][S@@+]1COc2cc(-c3ccc(OC[C@H]4CCN(c5ncc(Cl)cn5)C4)c(F)c3)ccc21 [Example B-86, (R)-6-(4-(((S)-1-(5-Chloropyrimidin-2-yl)pyrrolidine-3-yl)methoxy)-3-fluorophenyl)-2H-benzo[d][1,3]oxathiole 3-oxide]
64	13	657	73				CCc1ccnc(N2CC[C@H](COc3ccc(-c4ccc5c(c4)OC[S@+]5[O-])cc3F)C2)n1 [Example B-85, (R)-6-(4-(((S)-1-(4-Ethylpyrimidin-2-yl)pyrrolidine-3-yl)methoxy)-3-fluorophenyl)-2H-benzo[d][1,3]oxathiole 3-oxide]
92	31.5	567	117				CCc1ccnc(N2CC[C@H](COc3ccc(-c4ccc5c(c4)OC[S@@+]5[O-])cc3F)C2)n1 [Example B-84, (S)-6-(4-(((S)-1-(4-Ethylpyrimidin-2-yl)pyrrolidine-3-yl)methoxy)-3-fluorophenyl)-2H-benzo[d][1,3]oxathiole 3-oxide]
93	10.3	222	155				CCc1cnc(N2CC[C@H](COc3ccc(-c4ccc5c(c4)OC[S@@+]5[O-])cc3)C2)nc1 [Example B-91, (S)-6-(4-(((S)-1-(5-Ethylpyrimidin-2-yl)pyrrolidine-3-yl)methoxy)phenyl)-2H-benzo[d][1,3]oxathiole 3-oxide]
74	54						CCc1cnc(N2CC[C@@H](COc3ccc(-c4ccc5c(c4)OC[S+]5[O-])cc3F)C2)nc1 (stereo partly drawn) [Example B-67, 6-(4-(((R)-1-(5-Ethylpyrimidin-2-yl)pyrrolidin-3-yl)methoxy)-3-fluorophenyl)-2H-benzo[d][1,3]oxathiole 3-oxide]

The remaining lines, values behind:

SMILES	Emax [1, 3] [%]	EC50 [1, 4] [nM]	EC50 [2] [nM]	Emax [2] [%]	EC50 ([1]; Table B-2 entries 1-14, protocol as described (800 000 cells/mL, 5 uL/well), CHO-GPR119 cells) [nM]	Emax [1, 5] [%]	EC50 [1, 6] [nM]
[O-][S@+]1COc2cc(-c3ccc(OCC4CCN(c5ncc(Cl)cn5)CC4)c(F)c3)ccc21 [Example B-59, (S)-6-(4-((1-(5-Chloropyrimidin-2-yl)piperidin-4-yl)methoxy)-3-fluorophenyl)-2H-benzo[d][1,3]oxathiole 3-oxide]	70	1.7	6.7	175			
CC(C)c1cnc(N2CCC(COc3ccc(-c4ccc5c(c4)OC[S@@+]5[O-])cc3F)CC2)nc1 [Example B-46, (S)-6-(3-fluoro-4-((1-(5-isopropylpyrimidin-2-yl)piperidin-4-yl)methoxy)phenyl)-2H-benzo[d][1,3]oxathiole 3-oxide]	82	10.1	7.9	164			
COc1cnc(N2CCC(COc3ccc(-c4ccc5c(c4)OC[S@@+]5[O-])cc3F)CC2)nc1 [Example B-50, (S)-6-(3-Fluoro-4-((1-(5-methoxypyrimidin-2-yl)piperidin-4-yl)methoxy)phenyl)-2H-benzo[d][1,3]oxathiole 3-oxide]	66	3.7	16.4	169			
[O-][S@@+]1COc2cc(-c3ccc(OCC4CCN(c5ncc(Cl)cn5)CC4)c(F)c3)ccc21 [Example B-34, (R)-6-(4-((1-(5-chloropyrimidin-2-yl)piperidin-4-yl)methoxy)-3-fluorophenyl)-2H-benzo[d][1,3]oxathiole-3-oxide]			35.7	172	0.9		
O=S1(=O)COc2cc(-c3ccc(OCC4CCN(c5ncncn5)CC4)c(F)c3)ccc21 [A-42, 6-(4-((1-(1,3,5-Triazin-2-yl)piperidin-4-yl)methoxy)-3-fluorophenyl)-2H-benzo[d][1,3]oxathiole 3,3-dioxide]						75	102
CC(C)C(=O)N1CCC(COc2ccc(-c3ccc4c(c3)OCS4(=O)=O)cc2F)CC1 [A-21]						77	37
